Measurements as given in PubChem BioAssay AID1963844 (Molecular Pharmacology Branch, DTP, NCI, 2024).

Tested on: 422866-222-R5-J1-PDC complex spheroid viability
Assay: Anticancer human tumor 422866-222-R5-J1-PDC patient-derived pancreatic adenocarcinoma cell line growth inhibition [POLQ]
Conditions: for IC50: curve of first compound; for viability, T/C: stronger effect = lower value
Procedure, shortened: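 Complex spheroid viability model combining PDC tumour cells with endothelial (HUVEC) and MSC stromal cells. Novobiocin, ART-558 or RP6685 were tested singly and in combination with standard and investigational anticancer drugs. Each was titrated in half-log steps from near clinical Cmax, or from 10 microM where Cmax was unknown.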

[1] = second compound 0.0316 µM, first compound 0.0316 µM
[2] = second compound 0.0316 µM, first compound 0.1 µM
[3] = second compound 0.0316 µM, first compound 0.316 µM
[4] = second compound 0.0316 µM, first compound 1 µM
[5] = second compound 0.0316 µM, first compound 3.16 µM
[6] = second compound 0.0316 µM, first compound 10 µM
[7] = second compound 0.1 µM, first compound 0.0316 µM
[8] = second compound 0.1 µM, first compound 0.1 µM
[9] = second compound 0.1 µM, first compound 0.316 µM
[10] = second compound 0.1 µM, first compound 1 µM
[11] = second compound 0.1 µM, first compound 3.16 µM
[12] = second compound 0.1 µM, first compound 10 µM
[13] = second compound 0.316 µM, first compound 0.0316 µM
[14] = second compound 0.316 µM, first compound 0.1 µM
[15] = second compound 0.316 µM, first compound 0.316 µM
[16] = second compound 0.316 µM, first compound 1 µM
[17] = second compound 0.316 µM, first compound 3.16 µM
[18] = second compound 0.316 µM, first compound 10 µM
[19] = second compound 1 µM, first compound 0.0316 µM
[20] = second compound 1 µM, first compound 0.1 µM
[21] = second compound 1 µM, first compound 0.316 µM
[22] = second compound 1 µM, first compound 1 µM
[23] = second compound 1 µM, first compound 3.16 µM
[24] = second compound 1 µM, first compound 10 µM
[25] = second compound 3.16 µM, first compound 0.0316 µM
[26] = second compound 3.16 µM, first compound 0.1 µM
[27] = second compound 3.16 µM, first compound 0.316 µM
[28] = second compound 3.16 µM, first compound 1 µM
[29] = second compound 3.16 µM, first compound 3.16 µM
[30] = second compound 3.16 µM, first compound 10 µM
[31] = second compound 10 µM, first compound 0.0316 µM
[32] = second compound 10 µM, first compound 0.1 µM
[33] = second compound 10 µM, first compound 0.316 µM
[34] = second compound 10 µM, first compound 1 µM
[35] = second compound 10 µM, first compound 3.16 µM
[36] = second compound 10 µM, first compound 10 µM
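Note: spheroids exposed to compounds for one week before readout.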
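Throughout, for viability, T/C: percent of DMSO vehicle wells luminescence so 100% = untreated viability.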

## CC1COCCN1c1cc(C2(O)CC3CCC(C2)O3)c2cnn(-c3ccn[nH]3)c2n1 (stereo unspecified) + Nc1ccc(C#CCN(C(=O)Cc2ncc(C(F)(F)F)cc2C(F)(F)F)c2ccc(F)cc2)nn1
Second compound 0.0316 µM
  IC50: > 10000 nM
Second compound 0.1 µM
  IC50: < 31.6 nM
Second compound 0.316 µM
  IC50: < 31.6 nM
Second compound 1 µM
  IC50: > 10000 nM
Second compound 3.16 µM
  IC50: 10000 nM
Second compound 10 µM
  IC50: < 31.6 nM
[1]
  viability, T/C: 72%
[2]
  viability, T/C: 39.4%
[3]
  viability, T/C: 40.7%
[4]
  viability, T/C: 74.5%
[5]
  viability, T/C: 73.5%
[6]
  viability, T/C: 61.1%
[7]
  viability, T/C: 58.2%
[8]
  viability, T/C: 39.4%
[9]
  viability, T/C: 48.5%
[10]
  viability, T/C: 71.6%
[11]
  viability, T/C: 83.6%
[12]
  viability, T/C: 63.8%
[13]
  viability, T/C: 61.3%
[14]
  viability, T/C: 37%
[15]
  viability, T/C: 42.2%
[16]
  viability, T/C: 74.8%
[17]
  viability, T/C: 73.8%
[18]
  viability, T/C: 59.9%
[19]
  viability, T/C: 64.3%
[20]
  viability, T/C: 39.5%
[21]
  viability, T/C: 37.3%
[22]
  viability, T/C: 71.4%
[23]
  viability, T/C: 65.5%
[24]
  viability, T/C: 57.9%
[25]
  viability, T/C: 97.4%
[26]
  viability, T/C: 38.7%
[27]
  viability, T/C: 36.9%
[28]
  viability, T/C: 77.2%
[29]
  viability, T/C: 63.2%
[30]
  viability, T/C: 69%
[31]
  viability, T/C: 60.7%
[32]
  viability, T/C: 41.5%
[33]
  viability, T/C: 47.1%
[34]
  viability, T/C: 83.8%
[35]
  viability, T/C: 65.3%
[36]
  viability, T/C: 63.4%

## COc1cc(C2c3cc4c(cc3C(OC3OC5COC(C)OC5C(O)C3O)C3COC(=O)C23)OCO4)cc(OC)c1O (stereo unspecified) + Nc1ccc(C#CCN(C(=O)Cc2ncc(C(F)(F)F)cc2C(F)(F)F)c2ccc(F)cc2)nn1
Second compound 0.0316 µM
  IC50: 779 nM
Second compound 0.1 µM
  IC50: 906 nM
Second compound 0.316 µM
  IC50: 555 nM
Second compound 1 µM
  IC50: 640 nM
Second compound 3.16 µM
  IC50: 367 nM
Second compound 10 µM
  IC50: 534 nM
[1]
  viability, T/C: 90.9%
[2]
  viability, T/C: 97.1%
[3]
  viability, T/C: 62.7%
[4]
  viability, T/C: 49.6%
[5]
  viability, T/C: 33.5%
[6]
  viability, T/C: 30.6%
[7]
  viability, T/C: 110%
[8]
  viability, T/C: 90.1%
[9]
  viability, T/C: 76.2%
[10]
  viability, T/C: 46.4%
[11]
  viability, T/C: 31.2%
[12]
  viability, T/C: 28.8%
[13]
  viability, T/C: 123%
[14]
  viability, T/C: 92.1%
[15]
  viability, T/C: 55.5%
[16]
  viability, T/C: 47.1%
[17]
  viability, T/C: 29.2%
[18]
  viability, T/C: 36.9%
[19]
  viability, T/C: 94.3%
[20]
  viability, T/C: 100%
[21]
  viability, T/C: 68.5%
[22]
  viability, T/C: 40.6%
[23]
  viability, T/C: 32.1%
[24]
  viability, T/C: 35.5%
[25]
  viability, T/C: 93.3%
[26]
  viability, T/C: 81.4%
[27]
  viability, T/C: 48.2%
[28]
  viability, T/C: 47.1%
[29]
  viability, T/C: 37.6%
[30]
  viability, T/C: 31.6%
[31]
  viability, T/C: 103%
[32]
  viability, T/C: 88.9%
[33]
  viability, T/C: 55.4%
[34]
  viability, T/C: 43.6%
[35]
  viability, T/C: 38.4%
[36]
  viability, T/C: 31.6%

## CC(C)n1c(=O)n(C)c2cnc3cc(F)c(-c4ccc(OCCCN5CCCCC5)nc4)cc3c21 + COC1C(OC(N)=O)C(O)C(Oc2ccc3c(O)c(NC(=O)c4ccc(O)c(CC=C(C)C)c4)c(=O)oc3c2C)OC1(C)C
Second compound 0.0316 µM
  IC50: < 31.6 nM
Second compound 0.1 µM
  IC50: < 31.6 nM
Second compound 0.316 µM
  IC50: < 31.6 nM
Second compound 1 µM
  IC50: < 31.6 nM
Second compound 3.16 µM
  IC50: < 31.6 nM
Second compound 10 µM
  IC50: < 31.6 nM
[1]
  viability, T/C: 40.7%
[2]
  viability, T/C: 36.1%
[3]
  viability, T/C: 34.5%
[4]
  viability, T/C: 38.5%
[5]
  viability, T/C: 39.4%
[6]
  viability, T/C: 37.2%
[7]
  viability, T/C: 42.6%
[8]
  viability, T/C: 38.5%
[9]
  viability, T/C: 39.1%
[10]
  viability, T/C: 37.8%
[11]
  viability, T/C: 36.9%
[12]
  viability, T/C: 36.2%
[13]
  viability, T/C: 40.6%
[14]
  viability, T/C: 36.1%
[15]
  viability, T/C: 42.4%
[16]
  viability, T/C: 44.7%
[17]
  viability, T/C: 34%
[18]
  viability, T/C: 30.2%
[19]
  viability, T/C: 34.6%
[20]
  viability, T/C: 45.8%
[21]
  viability, T/C: 37.2%
[22]
  viability, T/C: 38.6%
[23]
  viability, T/C: 39.2%
[24]
  viability, T/C: 32.1%
[25]
  viability, T/C: 44%
[26]
  viability, T/C: 40%
[27]
  viability, T/C: 42.3%
[28]
  viability, T/C: 33.4%
[29]
  viability, T/C: 35.4%
[30]
  viability, T/C: 39.6%
[31]
  viability, T/C: 39.1%
[32]
  viability, T/C: 39%
[33]
  viability, T/C: 38.8%
[34]
  viability, T/C: 43.4%
[35]
  viability, T/C: 35.2%
[36]
  viability, T/C: 32.6%
